# Measured values reported in patent publication US11945833B2, “Prodrugs of L-BHDU and methods of treating viral infections” (priority 2021, dated 2024).
# Entries after “also recorded” stand apart in the source; their conditions may differ. Where two headings read alike, the source gives them in different places.
# Columns and labels:
# VZV-ORF57-Luc [1] = assay: Antiviral activity in ARPE-19 cells infected with VZV-ORF57-Luc; type: cell-based, Varicella-zoster virus; details: for in vitro anti-VZV activity (in words): VZV-ORF57-Luc
# Method: To enhance the antiviral activity octadecyloxyethyl-L-BHDU (ODE-L-BHDU, 5) and hexadecyloxypropyl-L-BHDU (HDP-L-BHDU, 6), POM-L-BHDU (8), and POC-L-BDHU (14) (FIGS. 1-3, Schemes 1-3) prodrugs were synthesized with modifications to increase bioavailability and cell penetration. Their antiviral activity was evaluated in ARPE-19 cells infected with VZV-ORF57-Luc, a new reporter virus.
# VZV-ORF57-Luc [2] = assay: NuSkin mouse model of VZV replication (adult human skin xenografts), bioluminescence imaging; type: in vivo, Athymic Nude mice; details: for in vivo antiviral activity against VZV (in words): s.c. once daily days 3-9 post-infection, equimolar to cidofovir 10 mg/kg; for dose effective in vivo: subcutaneous (s.c.); for activity compared with cidofovir in repeated in vivo studies: subcutaneous (s.c.) as well as oral route, cidofovir 10 mg/Kg
# Method: Mice were treated with vehicle or drugs, and virus yield was measured by bioluminescence imaging. VZV growth rate for individual mice (symbols) and the average for the group (bars) are shown in (A) and (B). […] The overall significance on day 10 post-inoculation (DPI 10) is p=0.0352 (one-way ANOVA). ** p<0.01 for OED-L-BHDU & POM-L-BHDU and (student's t test with Welch's correction). Cidofovir group (i.p.) has an average fold change of 2-5 on DPI 10. (B).
# HSV-1 = assay: Anti-HSV-1 activity in Vero cells; type: cell-based, herpes simplex virus
# Method: Additionally, all synthesized compounds were also tested in vitro against herpes simplex viruses (HSV-1, oral herpes) in Vero cells, FIG. 8.
# [3] = tested on: cell-associated VZV-ORF57-Luc; assay: Antiviral screening against cell-associated VZV-ORF57-Luc in ARPE-19 cells; type: cell-based, Varicella-zoster virus
# Method: Cidofovir and acyclovir are positive controls. Each symbol represents the average of 6 replicate wells; the line is the best fit curve (error bars omitted for clarity).
# These studies were performed in the same manner as the efficacy studies described above, except cell-associated VZV-ORF57-Luc, VZV-ORF57-ΔTK, VZV-ORF57-ΔTS and VZV-ORF57-ΔTKTS were used to infect ARPE-19 cells. As before, CDV and ACV were used as positive controls.
# [4] = Tolerability and weight change in NuSkin mice; details: male and female mice
# [5] = tested on: human fibroblast (HFFs) cells; type: cell-based
# Method: The cellular toxicity of synthesized analogs was determined on low passage of human fibroblast (HFFs) cells by performing 72 h of neutral red dye uptake and MTT cell proliferation assays.
# HSV-2 = assay: Anti-HSV-2 activity in Vero cells, bioluminescence imaging; type: cell-based, herpes simplex virus
# Method: HSV-2 yield was determined by bioluminescence imaging. Each point represents the mean±standard deviation of a triplicate sample
# Furthermore, antiviral activity of these analogs was tested in vitro against the HSV-2 (genital herpes) in Vero cells using acyclovir as a standard drug reference. […] All other analogs, including L-BDHU, were found ineffective against the HSV-2 (FIG. 11, Table 3). After these findings, it was determined that POM-L-BHDU […] has potential against the HSV-1 & HSV-2. Further in vivo evaluation of POM prodrug of the L-BDHU will confirm activity.
# VZV [6] = assay: Topical treatment of VZV in human skin explant model; details: formulated in cocoa butter
# From the text: (§1) Each compound was formulated in Cocoa Butter and applied topically. POM was formulated in equimolar concentrations to 0.1% L-BHDU.
# HSV1 = assay: Topical treatment of HSV1 in human skin explant model; details: formulated in cocoa butter
# From the text: as §1
# VZV-BAC-Luc = details: previous assay, HFFs infected with VZV-BAC-Luc; read-out: EC50 against VZV in HFFs; cited from earlier work
# VZV [7] = details: cited from earlier work; for in vivo reduction in VZV growth compared to ACV and VACV: previous in vivo studies
# [8] = tested on: human foreskin fibroblast (HFFS) cells; details: cited from earlier work
# [9] = molecular target: T1, dihydropyridine dehydrogenase (Homo sapiens, UniProt Q12882); details: cited from earlier work
# T1 sequence (Q12882 4-1025): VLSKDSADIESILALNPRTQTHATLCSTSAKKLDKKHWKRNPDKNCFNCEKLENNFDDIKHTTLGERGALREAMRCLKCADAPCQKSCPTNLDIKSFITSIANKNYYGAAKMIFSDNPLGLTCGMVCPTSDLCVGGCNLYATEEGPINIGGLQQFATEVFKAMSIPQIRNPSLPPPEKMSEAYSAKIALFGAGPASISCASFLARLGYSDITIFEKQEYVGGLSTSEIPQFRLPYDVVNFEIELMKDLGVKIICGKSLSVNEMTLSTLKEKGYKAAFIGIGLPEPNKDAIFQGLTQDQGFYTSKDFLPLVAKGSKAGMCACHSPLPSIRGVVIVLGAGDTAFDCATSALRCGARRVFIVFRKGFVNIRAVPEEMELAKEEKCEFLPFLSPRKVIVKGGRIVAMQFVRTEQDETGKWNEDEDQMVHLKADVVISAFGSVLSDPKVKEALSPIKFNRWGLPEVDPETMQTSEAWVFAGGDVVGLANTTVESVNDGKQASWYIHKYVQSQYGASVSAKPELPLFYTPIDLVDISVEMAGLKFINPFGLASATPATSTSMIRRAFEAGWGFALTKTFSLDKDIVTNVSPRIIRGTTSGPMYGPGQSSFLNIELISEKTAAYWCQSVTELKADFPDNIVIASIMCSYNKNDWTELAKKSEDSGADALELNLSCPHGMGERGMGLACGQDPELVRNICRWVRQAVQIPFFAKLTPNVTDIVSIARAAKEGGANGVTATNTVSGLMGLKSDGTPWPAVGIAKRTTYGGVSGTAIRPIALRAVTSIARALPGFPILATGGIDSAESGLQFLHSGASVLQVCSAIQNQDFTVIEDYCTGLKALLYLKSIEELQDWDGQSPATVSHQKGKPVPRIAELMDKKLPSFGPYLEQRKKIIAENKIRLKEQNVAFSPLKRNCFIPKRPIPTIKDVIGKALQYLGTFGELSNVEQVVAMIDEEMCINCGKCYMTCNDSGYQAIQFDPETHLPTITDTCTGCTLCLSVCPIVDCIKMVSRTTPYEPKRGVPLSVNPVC
# [10] = cited from earlier work
# [11] = read-out: EC50 against VZV-ORF57-Luc
smiles,measurement,setting,value
"CCCCCCCCCCCCCCCCCCOCCOP(=O)(O)OC[C@H]1OC[C@@H](n2cc(/C=C/Br)c(=O)[nH]c2=O)O1 [ODE-L-BHDU, L-BHDU-5′-[(2-octadecyloxyethyl)phosphate]]",in vitro anti-VZV activity (in words),VZV-ORF57-Luc [1],lower antiviral activity relative to L-BHDU
same,in vitro anti-VZV activity (in words),VZV-ORF57-Luc [1]; listed as OED-L-BHDU,lower in vitro activity than the parental molecule
same,EC50,VZV-ORF57-Luc [1]; [11],68 nM
same,in vivo antiviral activity against VZV (in words),VZV-ORF57-Luc [2],better antiviral activity in comparison to L-BHDU; also recorded: most active
same,in vivo antiviral activity against VZV (in words),VZV-ORF57-Luc [2]; listed as OED-L-BHDU,superior antiviral potency compared to L-BHDU; also recorded: significantly enhanced in vivo antiviral activity in comparison to L-BHDU
same,dose effective in vivo,VZV-ORF57-Luc [2],around 25 mg/kg/day
same,activity compared with cidofovir in repeated in vivo studies,VZV-ORF57-Luc [2],more active than the cidofovir
same,anti-HSV-1 activity (in words),HSV-1,good activity
same,EC50,HSV-1; read-out: EC50 against HSV-1,757 nM
same,potency against cell-associated VZV-ORF57-Luc compared to CDV or ACV,[3],less potent compared to CDV
same,concentration at which cellular cytotoxicity was exhibited,Vero Cells,20 µM
same,tolerability / toxicity in mice,[4],without significant toxicity
same,tolerability / toxicity in mice,[4]; listed as OED-L-BHDU,well-tolerated
"Nc1nc2c(ncn2COCCO)c(=O)[nH]1 [acyclovir, reference compound]",EC50,"HSV-1; Human alphaherpesvirus 1, read-out: EC50 against HSV-1",73.6 nM
CC(C)(C)C(=O)OCOP(=O)(OCOC(=O)C(C)(C)C)OC[C@H]1OC[C@@H](n2cc(/C=C/Br)c(=O)[nH]c2=O)O1 [POM-L-BHDU],in vitro anti-VZV activity (in words),VZV-ORF57-Luc [1],significant anti-VZV activity; also recorded: good antiviral efficacy; also recorded: enhanced antiviral potency in comparison to L-BHDU
same,in vitro anti-VZV activity (in words),VZV-ORF57-Luc [1]; listed as POM (8),better in vitro and in vivo activity in comparison to L-BDHU
same,CC50,[5],> 100000 nM
same,effect on cellular proliferation,[5],did not affect cellular proliferation
same,oral in vivo effectiveness in comparison to cidofovir (ip route),"VZV-ORF57-Luc [2]; oral, FIG. 6B",orally equal effective in comparison to cidofovir
same,in vivo antiviral activity against VZV (in words),VZV-ORF57-Luc [2],most active; also recorded: superior antiviral potency compared to L-BHDU; also recorded: retained its antiviral potency; also recorded: better activity compared to parental molecule
same,in vivo antiviral activity against VZV (in words),VZV-ORF57-Luc [2]; listed as POM (8),better in vitro and in vivo activity in comparison to L-BDHU
same,dose effective in vivo,VZV-ORF57-Luc [2],around 25 mg/kg/day
same,activity compared with cidofovir in repeated in vivo studies,VZV-ORF57-Luc [2],more active than the cidofovir
same,EC50,HSV-1; read-out: EC50 against HSV-1,28 nM
same,anti-HSV-2 activity (in words),HSV-2,active
same,anti-HSV-2 activity (in words),HSV-2; listed as POM-L-BDHU,significant activity
same,EC50,HSV-2; read-out: EC50 against HSV-2,1400 nM
same,prevention of VZV spread in adult human skin,VZV [6],highly effective
same,prevention of HSV1 spread in adult human skin,HSV1,highly effective
same,prevention of HSV1 spread in adult human skin,HSV1; listed as L-BHDU-POM,highly effective; also recorded: more effective than topical acyclovir 0.5%
same,CC50,Vero Cells,> 100000 nM
same,tolerability / toxicity in mice,[4],without significant toxicity
same,tolerability / toxicity in mice,[4]; listed as POM-L-BDHU,well-tolerated
"CCCCCCCCCCCCCCCCOCCCOP(=O)(O)OC[C@H]1OC[C@@H](n2cc(/C=C/Br)c(=O)[nH]c2=O)O1 [HDP-L-BHDU, hexadecyloxypropyl-L-BHDU]",in vitro anti-VZV activity (in words),VZV-ORF57-Luc [1],lower antiviral activity relative to L-BHDU; also recorded: lower in vitro activity than the parental molecule
same,EC50,VZV-ORF57-Luc [1]; [11],900 nM
same,CC50,[5],10000 nM
CC(C)C(N)C(=O)OCC1OCC(n2cc(/C=C/Br)c(=O)[nH]c2=O)O1 [L-valyl-L-BHDU],EC50,VZV-BAC-Luc,30 nM
same,in vivo reduction in VZV growth compared to ACV and VACV,VZV [7],significant reduction in VZV growth
same,CC50,[8],200000 nM
O=c1[nH]c(=O)n([C@@H]2CO[C@H](CO)O2)cc1/C=C/Br [L-BHDU],EC50,VZV-ORF57-Luc [1]; read-out: EC50 against VZV in ARPE-19s,22 nM
same,EC50,VZV-ORF57-Luc [1]; [11],22 nM
same,CC50,[5],> 100000 nM
same,effect on cellular proliferation,[5],did not affect cellular proliferation
same,in vivo antiviral activity against VZV (in words),VZV-ORF57-Luc [2],ineffective
same,anti-HSV-1 activity (in words),HSV-1,good activity
same,EC50,HSV-1; read-out: EC50 against HSV-1,7 nM
same,anti-HSV-2 activity (in words),HSV-2; listed as L-BDHU,ineffective; also recorded: inactive
same,prevention of VZV spread in adult human skin,VZV [6],highly effective
same,prevention of HSV1 spread in adult human skin,HSV1,highly effective
same,EC50,VZV-BAC-Luc,220 nM
same,CC50,Vero Cells,> 100000 nM
same,dose effective in SCID-Hu mouse model of VZV replication,VZV [7]; human fetal skin,15 mg/kg
same,in vivo reduction in VZV growth compared to ACV and VACV,VZV [7],significant reduction in VZV growth
same,inhibition of dihydropyridine dehydrogenase activity,[9],does not inhibit
same,levels in mouse organs,[10],reached high levels in mouse organs but not in the brain
same,well tolerated dose,"[10]; mouse, in vivo",up to 150 mg/kg
"Nc1ccn(C[C@@H](CO)OCP(=O)(O)O)c(=O)n1 [Cidofovir, cidofovir, reference compound]",average fold change on DPI 10,"VZV-ORF57-Luc [2]; i.p., day 10 post-inoculation",2-5 fold
"CC(C)OC(=O)OCOP(=O)(OCOC(=O)OC(C)C)OC[C@H]1OC[C@@H](n2cc(/C=C/Br)c(=O)[nH]c2=O)O1 [POC-L-BHDU, Bis (POC) prodrug L-BHDU]",in vitro anti-VZV activity (in words),VZV-ORF57-Luc [1],significant anti-VZV activity; also recorded: good antiviral efficacy
same,in vitro anti-VZV activity (in words),VZV-ORF57-Luc [1]; listed as POC (14),better in vitro and in vivo activity in comparison to L-BDHU
same,EC50,VZV-ORF57-Luc [1]; [11],34 nM
same,CC50,[5],> 100000 nM
same,effect on cellular proliferation,[5],did not affect cellular proliferation
same,in vivo antiviral activity against VZV (in words),VZV-ORF57-Luc [2],ineffective
same,in vivo antiviral activity against VZV (in words),VZV-ORF57-Luc [2]; listed as POC (14),better in vitro and in vivo activity in comparison to L-BDHU
same,anti-HSV-1 activity (in words),HSV-1,good activity
same,EC50,HSV-1; read-out: EC50 against HSV-1,26 nM
same,CC50,Vero Cells,> 100000 nM
